Experimental data: patent US20230085307A1, “PYRIDAZINONE COMPOUND AND HERBICIDE” (NISSAN CHEMICAL CORPORATION, priority 2019, published 2023)

What was measured:
late watergrass [1] = test: Test Example 1: herbicidal activity, application before weed generation under submerged conditions (Table 16, symbol A); assay type: in vivo, late watergrass (Echinochloa oryzicola); conditions: amount of applied herbicide 320 g/ha
In short: (§1)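 Alluvial soil was flooded to 4 cm depth, weed seeds were sown mixed and 2.5-leaf rice seedlings were transplanted. On sowing day, the compound's emulsion, diluted in water to a set dose, was applied to the water surface. Plants grew at 25–30 °C and were scored 0–5 after three weeks.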

Japanese bulrush [2] = test: Test Example 1: herbicidal activity, application before weed generation under submerged conditions (Table 16, symbol B); assay type: in vivo, Japanese bulrush (Schoenoplectus juncoides); conditions: amount of applied herbicide 320 g/ha
In short: as §1

oval-leafed pondweed [3] = test: Test Example 1: herbicidal activity, application before weed generation under submerged conditions (Table 16, symbol C); assay type: in vivo, oval-leafed pondweed (Monochoria vaginalis); conditions: amount of applied herbicide 320 g/ha
In short: as §1

late watergrass [4] = test: Test Example 2: herbicidal activity, application during weed generation under submerged conditions (Table 17, symbol A); assay type: in vivo, late watergrass (Echinochloa oryzicola); conditions: AAH 320 g/ha; application during weed generation, submerged conditions
In short: (§2)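 In this pot test, flooded alluvial soil (water depth 4 cm) holds all three species sown as a mixture. Once seedlings have one to two leaves, the compound's emulsion, thinned with water to the intended dose, is poured on the water; grading follows after three weeks on the earlier criteria.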

Japanese bulrush [5] = test: Test Example 2: herbicidal activity, application during weed generation under submerged conditions (Table 17, symbol B); assay type: in vivo, Japanese bulrush (Schoenoplectus juncoides); conditions: AAH 320 g/ha; application during weed generation, submerged conditions
In short: as §2

oval-leafed pondweed [6] = test: Test Example 2: herbicidal activity, application during weed generation under submerged conditions (Table 17, symbol C); assay type: in vivo, oval-leafed pondweed (Monochoria vaginalis); conditions: AAH 320 g/ha; application during weed generation, submerged conditions
In short: as §2

barnyard grass [7] = test: Test Example 3: herbicidal effect by foliage application, Wagner pot (Table 18, symbol H); assay type: in vivo, barnyard grass (Echinochloa crus-galli); conditions: 320 g/ha
In short: (§3)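 Plants were sown in alluvial soil held under 0.1–0.5 cm standing water and grown 14 days in a greenhouse at 25–30 °C. An emulsifiable formulation, water-diluted to the set dose, was then sprayed onto the foliage, and effects were scored three weeks later using previously defined criteria.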

Chinese sprangletop = test: Test Example 3: herbicidal effect by foliage application, Wagner pot (Table 18, symbol D); assay type: in vivo, chinese sprangletop (Leptochloa chinensis); conditions: 320 g/ha
In short: as §3

rice flat sedge = test: Test Example 3: herbicidal effect by foliage application, Wagner pot (Table 18, symbol E); assay type: in vivo, rice flat sedge (Cyperus iria); conditions: 320 g/ha
In short: as §3

southern crabgrass [8] = test: Test Example 5: herbicidal effect by foliage application, plastic box (Table 20, symbol F); assay type: in vivo, southern crabgrass (Digitaria ciliaris)
In short: (§4)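 Plants were sown into sterilized diluvial soil under about 1.5 cm cover and kept in a greenhouse at 25° C. to 30° C. Fourteen days on, foliage received an even spray of the diluted emulsion. Herbicidal or crop effect was judged three weeks afterwards.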

green foxtail [9] = test: Test Example 5: herbicidal effect by foliage application, plastic box (Table 20, symbol G); assay type: in vivo, green foxtail (Setaria viridis)
In short: as §4

barnyard grass [10] = test: Test Example 5: herbicidal effect by foliage application, plastic box (Table 20, symbol H); assay type: in vivo, barnyard grass (Echinochloa crus-galli)
In short: as §4

wild oat [11] = test: Test Example 5: herbicidal effect by foliage application, plastic box (Table 20, symbol I); assay type: in vivo, wild oat (Avena fatua)
In short: as §4

blackgrass [12] = test: Test Example 5: herbicidal effect by foliage application, plastic box (Table 20, symbol J); assay type: in vivo, blackgrass (Alopecurus myosuroides)
In short: as §4

Italian ryegrass [13] = test: Test Example 5: herbicidal effect by foliage application, plastic box (Table 20, symbol K); assay type: in vivo, Italian ryegrass (Lolium multiflorum)
In short: as §4

velvetleaf [14] = test: Test Example 5: herbicidal effect by foliage application, plastic box (Table 20, symbol M); assay type: in vivo, velvetleaf (Abutilon theophrasti)
In short: as §4

lambsquarters [15] = test: Test Example 5: herbicidal effect by foliage application, plastic box (Table 20, symbol O); assay type: in vivo, lambsquarters (Chenopodium album)
In short: as §4

chickweed [16] = test: Test Example 5: herbicidal effect by foliage application, plastic box (Table 20, symbol P); assay type: in vivo, common chickweed (Stellaria media)
In short: as §4

false cleavers = test: Test Example 5: herbicidal effect by foliage application, plastic box (Table 20, symbol Q); assay type: in vivo, false cleavers (Galium spurium)
In short: as §4

persian speedwell [17] = test: Test Example 5: herbicidal effect by foliage application, plastic box (Table 20, symbol R); assay type: in vivo, Persian speedwell (Veronica persica)
In short: as §4

southern crabgrass [18] = test: Test Example 4: herbicidal effect by soil treatment (Table 19, symbol F); assay type: in vivo, southern crabgrass (Digitaria ciliaris); conditions: amount of applied herbicide 320 g/ha
In short: (§5)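 Pre-emergence style soil spray: seeds under ~1.5 cm sterilized diluvial soil received a uniform coat of emulsion diluted to the predetermined herbicide amount. Greenhouse 25–30° C; readout at week three on previously defined criteria.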

green foxtail [19] = test: Test Example 4: herbicidal effect by soil treatment (Table 19, symbol G); assay type: in vivo, green foxtail (Setaria viridis); conditions: amount of applied herbicide 320 g/ha
In short: as §5

barnyard grass [20] = test: Test Example 4: herbicidal effect by soil treatment (Table 19, symbol H); assay type: in vivo, barnyard grass (Echinochloa crus-galli); conditions: amount of applied herbicide 320 g/ha
In short: as §5

wild oat [21] = test: Test Example 4: herbicidal effect by soil treatment (Table 19, symbol I); assay type: in vivo, wild oat (Avena fatua); conditions: amount of applied herbicide 320 g/ha
In short: as §5

blackgrass [22] = test: Test Example 4: herbicidal effect by soil treatment (Table 19, symbol J); assay type: in vivo, blackgrass (Alopecurus myosuroides); conditions: amount of applied herbicide 320 g/ha
In short: as §5

Italian ryegrass [23] = test: Test Example 4: herbicidal effect by soil treatment (Table 19, symbol K); assay type: in vivo, Italian ryegrass (Lolium multiflorum); conditions: amount of applied herbicide 320 g/ha
In short: as §5

windgrass [24] = test: Test Example 4: herbicidal effect by soil treatment (Table 19, symbol L); assay type: in vivo, windgrass (Apera spica-venti); conditions: amount of applied herbicide 320 g/ha
In short: as §5

velvetleaf [25] = test: Test Example 4: herbicidal effect by soil treatment (Table 19, symbol M); assay type: in vivo, velvetleaf (Abutilon theophrasti); conditions: amount of applied herbicide 320 g/ha
In short: as §5

redroot pigweed [26] = test: Test Example 4: herbicidal effect by soil treatment (Table 19, symbol N); assay type: in vivo, redroot pigweed (Amaranthus retroflexus); conditions: amount of applied herbicide 320 g/ha
In short: as §5

lambsquarters [27] = test: Test Example 4: herbicidal effect by soil treatment (Table 19, symbol O); assay type: in vivo, lambsquarters (Chenopodium album); conditions: amount of applied herbicide 320 g/ha
In short: as §5

chickweed [28] = test: Test Example 4: herbicidal effect by soil treatment (Table 19, symbol P); assay type: in vivo, common chickweed (Stellaria media); conditions: amount of applied herbicide 320 g/ha
In short: as §5

persian speedwell [29] = test: Test Example 4: herbicidal effect by soil treatment (Table 19, symbol R); assay type: in vivo, Persian speedwell (Veronica persica); conditions: amount of applied herbicide 320 g/ha
In short: as §5

windgrass [30] = test: Test Example 5: herbicidal effect by foliage application, plastic box (Table 20, symbol L); assay type: in vivo, windgrass (Apera spica-venti); conditions: amount of applied herbicide 320 g/ha; foliage application after 14-day growth; evaluated three weeks after application
In short: as §4

redroot pigweed [31] = test: Test Example 5: herbicidal effect by foliage application, plastic box (Table 20, symbol N); assay type: in vivo, redroot pigweed (Amaranthus retroflexus); conditions: amount of applied herbicide 320 g/ha; foliage application after 14-day growth; evaluated three weeks after application
In short: as §4

[32] = foliage application, 320 g/ha, three weeks after application
[33] = amount of applied herbicide 320 g/ha, foliage application after 14-day growth, evaluated three weeks after application

Structure (SMILES): CCCC(=O)Oc1c(C)nn(C)c(=O)c1-c1c(-c2ccc(F)cc2OC)sc2cc(C)ccc12 [3-056]
- Herbicidal effect, A: late watergrass (late watergrass [1]): 3 (Herbicidal rate of 40% or more and less than 70%)
- Herbicidal effect, B: Japanese bulrush (Japanese bulrush [2]): 0 (Herbicidal rate of 5% or less (almost no effect))
- Herbicidal effect, C: oval-leafed pondweed (oval-leafed pondweed [3]): 0 (Herbicidal rate of 5% or less (almost no effect))
- herbicidal effect rating, A: late watergrass (late watergrass [4]): 2 (Herbicidal rate of 20% or more and less than 40%)
- herbicidal effect rating, B: Japanese bulrush (Japanese bulrush [5]): 0 (Herbicidal rate of 5% or less (almost no effect))
- herbicidal effect rating, C: oval-leafed pondweed (oval-leafed pondweed [6]): 0 (Herbicidal rate of 5% or less (almost no effect))
- herbicidal effect on barnyard grass (H) (barnyard grass [7]): 3 (Herbicidal rate of 40% or more and less than 70%)
- herbicidal effect on Chinese sprangletop (D) (Chinese sprangletop): 1 (Herbicidal rate of 5% or more and less than 20%)
- herbicidal effect on rice flat sedge (E) (rice flat sedge): 3 (Herbicidal rate of 40% or more and less than 70%)
- F: southern crabgrass, herbicidal effect grade (southern crabgrass [8]; [32]): 3 (Herbicidal rate of 40% or more and less than 70%)
- G: green foxtail, herbicidal effect grade (green foxtail [9]; [32]): 4 (Herbicidal rate of 70% or more and less than 90%)
- H: barnyard grass, herbicidal effect grade (barnyard grass [10]; [32]): 3 (Herbicidal rate of 40% or more and less than 70%)
- I: wild oat, herbicidal effect grade (wild oat [11]; [32]): 3 (Herbicidal rate of 40% or more and less than 70%)
- J: blackgrass, herbicidal effect grade (blackgrass [12]; [32]): 2 (Herbicidal rate of 20% or more and less than 40%)
- K: Italian ryegrass, herbicidal effect grade (Italian ryegrass [13]; [32]): 3 (Herbicidal rate of 40% or more and less than 70%)
- M: velvetleaf, herbicidal effect grade (velvetleaf [14]; [32]): 2 (Herbicidal rate of 20% or more and less than 40%)
- O: lambsquarters, herbicidal effect grade (lambsquarters [15]; [32]): 2 (Herbicidal rate of 20% or more and less than 40%)
- P: chickweed, herbicidal effect grade (chickweed [16]; [32]): 5 (Herbicidal rate of 90% or more (almost completely withered))
- Q: false cleavers, herbicidal effect grade (false cleavers; [32]): 4 (Herbicidal rate of 70% or more and less than 90%)
- R: persian speedwell, herbicidal effect grade (persian speedwell [17]; [32]): 5 (Herbicidal rate of 90% or more (almost completely withered))

Structure (SMILES): Cc1nn(C)c(=O)c(-c2c(-c3ccc(F)cc3)sc3cc(F)c(F)cc23)c1O [5-001]
- Herbicidal effect, A: late watergrass (late watergrass [1]): 3 (Herbicidal rate of 40% or more and less than 70%)
- Herbicidal effect, B: Japanese bulrush (Japanese bulrush [2]): 1 (Herbicidal rate of 5% or more and less than 20%)
- Herbicidal effect, C: oval-leafed pondweed (oval-leafed pondweed [3]): 0 (Herbicidal rate of 5% or less (almost no effect))
- herbicidal effect on barnyard grass (H) (barnyard grass [7]): 4 (Herbicidal rate of 70% or more and less than 90%)
- herbicidal effect on Chinese sprangletop (D) (Chinese sprangletop): 3 (Herbicidal rate of 40% or more and less than 70%)
- herbicidal effect on rice flat sedge (E) (rice flat sedge): 5 (Herbicidal rate of 90% or more (almost completely withered))
- F: southern crabgrass, herbicidal effect grade (southern crabgrass [18]): 5 (Herbicidal rate of 90% or more (almost completely withered))
- G: green foxtail, herbicidal effect grade (green foxtail [19]): 5 (Herbicidal rate of 90% or more (almost completely withered))
- H: barnyard grass, herbicidal effect grade (barnyard grass [20]): 0 (Herbicidal rate of 5% or less (almost no effect))
- I: wild oat, herbicidal effect grade (wild oat [21]): 3 (Herbicidal rate of 40% or more and less than 70%)
- J: blackgrass, herbicidal effect grade (blackgrass [22]): 4 (Herbicidal rate of 70% or more and less than 90%)
- K: Italian ryegrass, herbicidal effect grade (Italian ryegrass [23]): 5 (Herbicidal rate of 90% or more (almost completely withered))
- L: windgrass, herbicidal effect grade (windgrass [24]): 5 (Herbicidal rate of 90% or more (almost completely withered))
- M: velvetleaf, herbicidal effect grade (velvetleaf [25]): 4 (Herbicidal rate of 70% or more and less than 90%)
- N: redroot pigweed, herbicidal effect grade (redroot pigweed [26]): 5 (Herbicidal rate of 90% or more (almost completely withered))
- O: lambsquarters, herbicidal effect grade (lambsquarters [27]): 5 (Herbicidal rate of 90% or more (almost completely withered))
- P: chickweed, herbicidal effect grade (chickweed [28]): 4 (Herbicidal rate of 70% or more and less than 90%)
- R: persian speedwell, herbicidal effect grade (persian speedwell [29]): 5 (Herbicidal rate of 90% or more (almost completely withered))
- Herbicidal effect by foliage application, F: southern crabgrass (southern crabgrass [8]; [33]): 5 (Herbicidal rate of 90% or more (almost completely withered))
- Herbicidal effect by foliage application, G: green foxtail (green foxtail [9]; [33]): 5 (Herbicidal rate of 90% or more (almost completely withered))
- Herbicidal effect by foliage application, H: barnyard grass (barnyard grass [10]; [33]): 4 (Herbicidal rate of 70% or more and less than 90%)
- Herbicidal effect by foliage application, I: wild oat (wild oat [11]; [33]): 4 (Herbicidal rate of 70% or more and less than 90%)
- Herbicidal effect by foliage application, J: blackgrass (blackgrass [12]; [33]): 4 (Herbicidal rate of 70% or more and less than 90%)
- Herbicidal effect by foliage application, K: Italian ryegrass (Italian ryegrass [13]; [33]): 5 (Herbicidal rate of 90% or more (almost completely withered))
- Herbicidal effect by foliage application, L: windgrass (windgrass [30]): 5 (Herbicidal rate of 90% or more (almost completely withered))
- Herbicidal effect by foliage application, M: velvetleaf (velvetleaf [14]; [33]): 5 (Herbicidal rate of 90% or more (almost completely withered))
- Herbicidal effect by foliage application, N: redroot pigweed (redroot pigweed [31]): 5 (Herbicidal rate of 90% or more (almost completely withered))
- Herbicidal effect by foliage application, O: lambsquarters (lambsquarters [15]; [33]): 5 (Herbicidal rate of 90% or more (almost completely withered))
- Herbicidal effect by foliage application, P: chickweed (chickweed [16]; [33]): 5 (Herbicidal rate of 90% or more (almost completely withered))
- Herbicidal effect by foliage application, Q: false cleavers (false cleavers; [33]): 5 (Herbicidal rate of 90% or more (almost completely withered))
- Herbicidal effect by foliage application, R: persian speedwell (persian speedwell [17]; [33]): 5 (Herbicidal rate of 90% or more (almost completely withered))
